Results reported in patent publication US20150125402A1, “ANTIMICROBIAL AGENTS” (BEDOUKIAN RESEARCH, INC., priority 2012, published 2015).
≈ marks a conversion by molar mass, not a printed value.

How the values were obtained:
Type in all cases: cell-based
Staphylococcus aureus [1] = assay: Bactericidal activity in solution (Activity % Reduction); details: 2000 ppm in water at ambient temperature
Procedure: (§1) In a second assay, compounds of this invention were screened for activity to kill bacteria in solution over a short period of time. Bactericidal activity is expressed as Activity % Reduction. All samples were tested in water at ambient temperature and at a concentration of 2000 ppm.

Escherichia coli [2] = assay: as above; details: 2000 ppm in water at ambient temperature
Procedure: as §1

Candida albicans = assay: Minimum Inhibition Concentration (MIC) screen; details: strain ATTC 10231
Procedure: (§2) To test the compounds as antimicrobial agents, the compounds were screened for activity to inhibit bacteria, yeast and mold. The Minimum Inhibition Concentration (MIC) is determined as the lowest concentration activity to inhibit the microorganism.

Staphylococcus aureus [3] = assay: Minimum Inhibition Concentration (MIC) screen; details: strain ATTC 6538
Procedure: as §2

Pseudomonas aeruginosa = assay: Minimum Inhibition Concentration (MIC) screen; details: strain ATTC 15442
Procedure: as §2

Aspergillus brasiliensis = assay: Minimum Inhibition Concentration (MIC) screen; details: strain ATTC 16404
Procedure: as §2

Escherichia coli [4] = assay: Minimum Inhibition Concentration (MIC) screen; details: strain ATTC 10536
Procedure: as §2

[5] = tested on: Staphylococcus epidermidis; assay: Minimum Inhibition Concentration (MIC) screen; details: strain ATTC 12228
Procedure: as §2

MIC (Candida albicans) [mg/L]	MIC (Staphylococcus aureus [3]) [mg/L]	MIC (Pseudomonas aeruginosa) [mg/L]	MIC (Aspergillus brasiliensis) [mg/L]	MIC (Escherichia coli [4]) [mg/L]	MIC [5] [mg/L]	Compound	inhibition at 2000 ppm (Staphylococcus aureus [1]; 5 min) [%]	inhibition at 2000 ppm (Staphylococcus aureus [1]; 1 hour) [%]	inhibition at 2000 ppm (Escherichia coli [2]; 5 min) [%]	inhibition at 2000 ppm (Escherichia coli [2]; 1 hour) [%]
125 (≈ 0.743 mM)	125 (≈ 0.743 mM)	> 1000	250 (≈ 1.49 mM)	> 1000	125 (≈ 0.743 mM)	CCCCC1CC(C)=CC(O)C1 (stereo not shown) [3-Methyl-5-Butyl-2-Cyclohexenol, 3-methyl-5-butyl-2-cyclohexenol]	28.4	39	34.7	88.5
500 (≈ 3.01 mM)	500 (≈ 3.01 mM)	> 1000	250 (≈ 1.5 mM)	500 (≈ 3.01 mM)	1000 (≈ 6.01 mM)	CCCCC1CC(=O)C=C(C)C1 (stereo not shown) [3-Methyl-5-Butyl-2-Cyclohexenone, 3-methyl-5-butyl-2-cyclohexenone]	33.9	33.2	83.8	100
> 1000	15.6 (≈ 0.0749 mM)	> 1000	> 1000	> 1000	31.2 (≈ 0.15 mM)	CCCCCCCC1CC(=O)C=C(C)C1 (stereo not shown) [3-Methyl-5-Heptyl-2-Cyclohexenone, 3-methyl-5-heptyl-2-cyclohexenone]	37.6	24.1	13.9	25
1000 (≈ 6.57 mM)	1000 (≈ 6.57 mM)	> 1000	500 (≈ 3.28 mM)	1000 (≈ 6.57 mM)	> 1000	CCCC1CC(=O)C=C(C)C1 (stereo not shown) [3-Methyl-5-Propyl-2-Cyclohexenone, 3-methyl-5-propyl-2-cyclohexenone]	29.2	33.9	69.5	99
